According to ChEMBL document CHEMBL1135840, “Design, synthesis and pharmacological evaluation of novel pyrazolo[3,4-b]thieno[2,3-d]pyridine acid derivatives: a new class of anti-inflammatory and anti-platelet agents” (Bioorg Med Chem Lett, 2002):

Legend:
[1] = species on record: Oryctolagus cuniculus; test: In vitro of platelet aggregation of citreated rabbit platelet-rich plasma, induced by arachidonic acid at 200 uM; type: functional
[2] = species on record: Oryctolagus cuniculus; test: Compound was tested for platelet aggregation in citreated rabbit platelet-rich plasma induced by arachidonic acid at 200 uM; type: functional
[3] = system: Rattus norvegicus; test: Antiinflammatory effect at a dose of 100 umol/kg administered orally in the carrageenan-induced rat pleurisy assay (10e6 Cells/cavity); type: functional
[4] = system: Rattus norvegicus; test: Percent inhibition of cellular migration by the compound at a dose of 100 umol/kg was evaluated; type: functional
[5] = system: Rattus norvegicus; test: Exudate volume was determined after administration at a dose of 100 umol/kg; type: functional
[6] = species on record: Cavia porcellus; test: In vitro effect of compound on leukotriene-D4 LTD4 (100 nM) induced contraction of isolated guinea pig tracheal strip; type: functional; settings: Trachea
[7] = species on record: Oryctolagus cuniculus; test: In vitro of platelet aggregation of citreated rabbit platelet-rich plasma, induced by collagen at 5 µg/mL; value expressed as slope
[8] = system: Rattus norvegicus; test: Percent inhibition of cellular migration by the compound at a dose of 100 umol/kg was evaluated in the carrageenan-induced rat pleurisy assay; type: functional
[9] = system: Rattus norvegicus; test: Exudate volume was determined after administration at a dose of 100 umol/kg in the carrageenan-induced rat pleurisy assay; type: functional

Row | SMILES | Aggregation [1] | IC50 [2] | Cell number [3] | inhibition in vivo at 100 µmol/kg [4] | Exudate volume [5] | IC50 [6] | Aggregation [7] | inhibition in vivo at 100 µmol/kg [8] | Exudate volume [9]
1 | Cc1nn(-c2ccccc2)c2ncc3c(OC(=O)CCCC(=O)O)c(-c4ccc(Cl)cc4)sc3c12 | 0% | 0.14 µM | 19600000 | 36.2% | 3.05 mL | 43.7 µM | 0 |  | 
2 | Cc1nn(-c2ccccc2)c2ncc3c(OCCCCC(=O)O)c(-c4ccc(Cl)cc4)sc3c12 | 58.9% |  | 21.5 | 30% | 3.22 mL |  | 7.5 |  | 
3 | Cc1nn(-c2ccccc2)c2ncc3c(OCCCCCC(=O)O)c(-c4ccc(Cl)cc4)sc3c12 | 56.6% |  | 17800000 | 42% | 3.16 mL |  | 5.8 |  | 
4 | Cc1nn(-c2ccccc2)c2ncc3c(OCc4ccc(CC(=O)O)cc4)c(-c4ccc(Cl)cc4)sc3c12 | 60.5% |  | 21900000 | 28.7% | 3.1 mL |  | 4.7 |  | 
5 | COc1ccc2c(c1)c(CC(=O)O)c(C)n2C(=O)c1ccc(Cl)cc1 [INDOMETHACIN] | 0% |  | 23.3 |  |  |  | 0.4 | 24.1% | 3.21 mL
